The EC50 is the concentration needed to bring the measured effect to its halfway point.

This note sets out measurements from patent US8008354B2, “Death receptor sensitizing compounds and methods of use therefor” (Burnham Institute for Medical Research, priority 2006, dated 2011).

Counter-ions that a name gives are not always drawn. Like-named read-outs stand apart in the source and are kept apart here.

The test system of one test is PPC-1 cells. The experiment in a line: MTT cell viability of PPC-1 cells treated with compound with or without CH-11 anti-FAS antibody. It counts as cell-based. Conditions: for IC50: read-out: LD50 (μM) PPCl; for LD50 (μM) (PPCl, CH-11): PPC-1 cells with CH-11 100 ng/mL, MTT 24 hours, LD50 = concentration that reduces cell viability by 50%. As for the experimental part: FIGS. 2A-C. […] PPC-1 cells (1×10^4) were seeded in 96 well plates. The next day, cells were treated with increasing concentrations of the sensitizing compounds with (open squares) and without (closed squares) CH-11 antibody (100 ng/mL). Cell viability was measured 24 hours later by MTT assay. Cell viability is expressed as a mean percentage of untreated cells+SD (n=3). The Chembridge identification numbers of the compounds are provided.
High throughput screening. […] PPC-1 cells (1×10^4) were seeded overnight into 96 well, flat-bottom plates (Costar, Cambridge, Mass.) in 100 μL of medium containing 2.5% FCS. […] CH-11 antibody (100 ng/mL) was then added, and the cells were incubated for 24 hours before assessing cell viability by a 3-(4,5-Dimethylthiazol-2-yl)-2,5-diphenyltetrazolium Bromide (MTT) dye reduction assay (Sigma).
Cell death assays. […] Absorbance readings were plotted against a standard curve to derive the corresponding cell number, and cell viability was expressed as a percentage relative to untreated cells.

A further test deals with FLIP. The experiment in a line: FLIP protein levels by SDS-PAGE/immunoblotting. It is filed as cell-based, human. Particulars: PPC-1 cells, 30 μM, with or without CH-11, 24 hours, long isoform. The protocol: FIG. 7. Effect of FAS-sensitizing compounds on levels of FLIP protein and DISC activation. (A) PPC-1 cells (2×10^5) were seeded into 35 mm plates and treated the next day with various FAS-sensitizing compounds (30 μM), with (+) or without (−) CH-11 antibody (100 ng/mL). As a positive control, cells were treated with CDDO (5 μM). Cell lysates were prepared 24 hours later, normalized for total protein content, and analyzed by SDS-PAGE/immunoblotting using antibodies specific for FLIP or a-tubulin. (B) PPC-1, OVCAR-3, T47D, MDA-MB-468 and DU 145 cells (2×10^5) were seeded into 35 mm plates and treated the next day with 5809354 (40 μM). Cell lysates were prepared 24 hours after treatment, normalized for total protein and analyzed by SDS-PAGE/immunoblotting using antibodies specific for FLIP or β-actin. (C) PPC-1, OVCAR-3, T47D, and DU 145 cells (2×10^5) were seeded into 35 mm plates and treated the next day with 5809354 (40 μM) (black bars) or buffer control (white bars). mRNA was extracted 24 hours after treatment. Levels of the long isoform of FLIP and GAPDH were detected by quantitative RT-PCR. Levels of FLIP were normalized for GAPDH expression and expressed as a mean fold change+SD over buffer treated cells. (D) PPC-1 cells (2×10^5) were seeded into 35 mm plates and treated the next day with various FAS-sensitizing compounds (30 μM) with (+) or without (−) CH-11 (100 ng/mL). Cell lysates were prepared 24 hours after treatment, normalized for total protein, and analyzed by SDS-PAGE/immunoblotting using antibodies specific for caspase-8 and β-actin.
FIG. 13. Small molecule down-regulation of FLIP sensitizes prostate cancer cells to anoikis. (A) PPC-1 cells were seeded overnight in adherent conditions and then treated with increasing concentrations of 5809354 for 16 hours. After incubation, cells were harvested. Total cellular RNA was extracted and mRNA levels of the long isoform of FLIP (FLIPL), the short isoform of FLIP (FLIPS), or rRNA levels of 18S were detected by real-time RT-PCR. Data were normalized using the ΔΔCT method and expressed as the mean±SEM percent of […] expression relative to untreated controls. (B) PPC-1 cells were cultured and treated as in panel A. Total cellular protein was isolated and analyzed by SDS-PAGE immunoblotting using anti-FLIP and anti-Actin antibodies. (C) PPC-1 cells were seeded overnight in adherent conditions and then exposed to increasing concentrations of 5809354 in the presence or absence of Fas-activating antibody (CH-11, 100 ng/mL). Thirty hours after incubation, cell viability was determined using the MTS assay. Data represents the mean±SEM of percent of viable cells. (D) PPC-1 cells were seeded overnight in adherent or suspension conditions and then treated with increasing concentrations of 5809354 for 30 hours. After incubation, apoptosis was measured by flow cytometry to detect cell surface annexin V expression and PI. Data represents the mean±SEM of percent of viable cells. (E) Cells were harvested, fixed, stained with DAPI, and nuclear morphology analyzed by fluorescence microscopy. Arrowheads refer to fragmented nuclei indicative of apoptosis. […] Thirty hours after incubation, cells were harvested and equal volumes plated in a colony formation assay. One week later, cells were stained with methylene blue and the number of colonies counted. Data represents the mean ±SEM percent of colonies relative to untreated controls.
Immunoblot analysis. Protein extracts were obtained by washing cells with phosphate-buffered saline (PBS) [pH 7.4] and suspending the cells in lysis buffer [10 mM Tris (pH 7.4), 150 mM NaCl, 0.1% Triton X-100, 0.5% sodium deoxycholate, and 5 mM EDTA] containing protease inhibitors (Complete tablets; Roche, Indianapolis, Ind.). Immunoblot assays were performed as described in Carter et al. (2005). […]
A general note: A western blot detects proteins with antibodies after separation by electrophoresis.

[1] abbreviates: Homo sapiens, PPC-1, 24 h, PPC-1 cells, compound alone without CH-11, MTT 24 hours.

On to `Cn1c(=N)n(CC(=O)c2cc(C(C)(C)C)c(O)c(C(C)(C)C)c2)c2ccccc21` [compound 5541203, 1-(3,5-di-tert-butyl-4-hydroxyphenyl)-2-(2-imino-3-methyl-2,3-dihydro-1H-benzo[d]imidazol-1-yl)ethanone hydrobromide], for which the IC50 was 45 µM in the test on PPC-1 cells (setting [1]) and 45.4 µM in the test with PPC-1 cells (PPC-1 cells, compound alone without CH-11, MTT 24 hours; hydrobromide)). In addition, in the test on PPC-1 cells (Homo sapiens, PPC-1, with anti-FAS antibody, read-out: EC50 as a FAS-sensitizer in PPC1 cells), the EC50 came to 25.7 µM. Also, the “LD50 (μM) (PPCl, CH-11)” value in the test with PPC-1 cells stood at 25.7 µM. Moreover, the “levels of FLIP protein” value with FLIP was “had little effect”.
For the molecule `O=C(CCc1ccccc1)Nc1ccc(Cl)cc1C(F)(F)F` [N-[4-chloro-2-(trifluoromethyl)phenyl]-3-phenylpropanamide], the IC50 in the test with PPC-1 cells (setting [1]) is above 100 µM. For the same molecule, the “LD50 (μM) (PPCl, CH-11)” value in the test on PPC-1 cells was above 100 µM.
The corresponding values for `O=C(CCc1ccccc1)Nc1cc(C(F)(F)F)ccc1Cl` [N-[2-chloro-5-(trifluoromethyl)phenyl]-3-phenylpropanamide] are above 100 µM and above 100 µM.
The corresponding values for `Br.CC(C)(C)c1cc(C(=O)Cn2c(=N)n(Cc3ccccc3)c3ccccc32)cc(C(C)(C)C)c1O` [compound 5657593, 2-(3-benzyl-2-imino-2,3-dihydro-1H-benzo[d]imidazol-1-yl)-1-(3,5-di-tert-butyl-4-hydroxyphenyl)ethanone hydrobromide] are 9.1 µM and 3.4 µM.
The corresponding values for `O=C(Nc1ccc(Cl)c(C(F)(F)F)c1)c1cccs1` [N-[4-chloro-3-(trifluoromethyl)phenyl]-2-thiophenecarboxamide] are 96 ± 1 µM and 35 ± 11 µM.
Consider `CC(=O)CC(=O)Nc1cc(C(F)(F)F)ccc1Cl` [N-[2-chloro-5-(trifluoromethyl)phenyl]-3-oxobutanamide], for which the IC50 in the test with PPC-1 cells (setting [1]) was 75 ± 1 µM. In addition, in the test on PPC-1 cells, the “LD50 (μM) (PPCl, CH-11)” value worked out at 65 ± 5 µM.
As for `C/C(CC(=O)Nc1ccc(Cl)c(C(F)(F)F)c1)=N\NC(=O)c1cnccn1` [N-(4-Chloro-3-trifluoromethyl-phenyl)-3-[(pyrazine-2-carbonyl)-hydrazono]-butyramide], the IC50 in the test on PPC-1 cells (setting [1]) stood at 67 ± 3 µM. Further, the “LD50 (μM) (PPCl, CH-11)” value in the test on PPC-1 cells was found to be 11 ± 3 µM.
Consider `O=C(CCc1ccccc1)Nc1ccc(Cl)c(C(F)(F)F)c1` [N-[4-chloro-3-(trifluoromethyl)-phenyl]-3-phenyl-proionamide], for which the IC50 in the test on PPC-1 cells (setting [1]) was 85 ± 3 µM. Further, the “LD50 (μM) (PPCl, CH-11)” value with PPC-1 cells turned out to be 11 ± 1 µM.
The corresponding values for `CC(C)(C)c1cc(C(=O)Cn2c(=N)n(CCN3CCCCC3)c3ccccc32)cc(C(C)(C)C)c1O.Cl` [compound 5529457, 1-(3,5-di-tert-butyl-4-hydroxyphenyl)-2-(2-imino-3-(2-(piperidin-1-yl)ethyl)-2,3-dihydro-1H-benzo[d]imidazol-1-yl)ethanone hydrochloride] are 7.5 µM and 3.7 µM.
For the molecule `Br.Cc1ccc(Cn2c(=N)n(CC(=O)c3cc(C(C)(C)C)c(O)c(C(C)(C)C)c3)c3ccccc32)cc1` [compound 5651311, 1-(3,5-di-tert-butyl-4-hydroxyphenyl)-2-(2-imino-3-(4-methylbenzyl)-2,3-dihydro-1H-benzo[d]imidazol-1-yl)ethanone hydrobromide], the IC50 with PPC-1 cells (setting [1]) came out at 19 µM. In the test with PPC-1 cells, the “LD50 (μM) (PPCl, CH-11)” value was 9 µM.
Regarding `O=C(Cc1ccc(Cl)cc1)N1CCN(C/C=C/c2ccccc2)CC1` [compound 5703229, 1-[(4-chlorophenyl)acetyl]-4-[(2e)3-phenylprop-2-enyl]piperazine], the IC50 with PPC-1 cells (Homo sapiens, PPC-1, 24 h) was 50 µM. In the test with PPC-1 cells, the “LD50 (μM) (PPCl, CH-11)” value is 34+4 μM.
